These results are taken from patent publication US20250304563A1, “ACTIVATORS OF EFFECTOR T CELLS” (Orum Therapeutics, Inc., priority 2022, published 2025).

The test system of assay [1] is Human primary T cells. The assay is described as follows: T cell activation: secreted IL-2. In kind it is cell-based. To be noted: 48 hours, fold over background normalized to Compound 141A; for IL-2 1 nM: 1 nM compound; for IL-2 10 nM: 10 nM compound; for IL-2 100 nM: 100 nM compound. How it is done:
(§1) Human primary T cells were isolated from commercially available frozen peripheral blood mononuclear cells (HemaCare Corporation) or from fresh LeukoPaks (Research Blood Components). T cells were isolated through depletion of non-T cells using negative selection kit according to the manufacturer's protocol (Miltenyi Biotec, Human Pan T Cell Isolation Kit, 130-096-535). Isolated cells were cultured overnight at 37° C. with 5% CO2 and plated at 1×10^5 cells per well in XVivo-15 serum-free media (Lonza, 04-418Q) into 96 well plates coated with anti-CD3 (OKT3) antibody (ThermoFisher, 16-0037-85). To coat the plates for T cell capture, anti-CD3 antibody was diluted in PBS at 10 μg/mL and 100 μl added to each well. Plates were incubated at 4° C. overnight or at 37° C. for 2 hours and washed once with PBS before use. Serial dilutions of each compound were added in duplicates to the T cells to assess their effect on T cell activation. T cells treated with 5 μg/mL of CD28 antibody (ThermoFisher, 16-0289-85) or T cells stimulated by CD3 only were used as a control. Plates were incubated with the Cbl-b inhibitors for 48 hours at 37° C. with 5% CO2, and supernatants were subsequently analyzed for levels of the activation induced secreted cytokines IL-2 or IFN-y (BD Biosciences CBA Flex Beads, 558269, 558270). T cells were additionally stained with anti-CD69 antibody (Invitrogen, 12-0699-42 which labels a T cell activation associated membrane protein to and surface expression was measured by flow cytometry (ThermoFisher Attune NxT).
(§2) To control for natural inter-donor variability in T cell responses intrinsic to using primary human donor derived cells, secreted IL-2 and IFN-y measurements for each test compound were reported as the fold increase of the compound treated levels over background (antiCD3/CD28 treatment only) normalized to the values obtained for Compound 141A. Results for compound treatment-induced changes in CD69 levels are similarly reported as the fold increase due to compound treatment over anti-CD3 stimulated background only, normalized to values obtained for Compound 141A.
Normalized T cell IL-2 responses were sorted into ranges as follows: fold over background values between 1.41 and 1.8: range “X”, between 0.80 and 1.40: range “A”, values between 0.31 and 0.79: range “B” values between 0.10 and 0.30: range “C”, values between 0.01 and 0.09: range “D.”

In assay [2] the test system is Human primary T cells. Description: T cell activation: CD69 surface expression by flow cytometry. Type of assay: cell-based. To be noted: fold over anti-CD3 stimulated background normalized to Compound 141A; for CD69 10 nM: 10 nM compound; for CD69 100 nM: 100 nM compound. The procedure: as §1, §2
Similarly, bins for normalized CD69 levels were sorted into ranges as follows: fold over background values between 1.11 and 1.6: range “X”, values between 0.81 and 1.10: range “A”; values between 0.61 and 0.80: range “B;” values between 0.30 and 0.60: range “C”.

In assay [3] the test system is Human primary T cells. Description: T cell activation: secreted IFN-y. In kind it is cell-based. Particulars: 48 hours, fold over background normalized to Compound 141A; for IFN-y 1 nM: 1 nM compound; for IFN-y 10 nM: 10 nM compound; for IFN-y 100 nM: 100 nM compound. How it is done:
as §1, §2
Normalized T cell IFN-y responses were sorted into ranges as follows: fold over background between 1.10 and 2.00: range “A”, values between 0.31 and 1.00: range “B;” values between 0.10 and 0.30: range “C”, and values between 0.01 and 0.09: range “D.”

In assay [4] the target is Cbl-b (36-427 aa truncated form, N-terminus Avi-tag) (Homo sapiens (Human), UniProt Q13191). Description: Cbl-b binding: TR-FRET displacement of BODIPY-FL probe. How it is done:
Compounds were assessed for binding activity to Cbl-b by their ability to compete with and displace a probe comprised of BODIPY-FL fluorophore conjugated to a Cbl-b inhibitor (see Example 54 in WO2020264398). In the assay, a 36-427 aa truncated form of Cbl-b with an N-terminus Avi-tag was incubated 20 mM HEPES pH 7.5, 150 mM NaCl, 0.01% Triton X-100, 0.1% BSA, 0.5 mM TCEP buffer with streptavidin-terbium (Cisbio). After one hour of incubation at room temperature, 1 uM each of fluorescent probe and compound were combined with the reaction mixture. Compounds with Cbl-b binding activity competitively displace the fluorophore tagged inhibitor thereby disrupting the FRET signal from the terbium-BODIPY-FL complex. The reaction mixtures were incubated for one additional hour at room temperature to allow for competition between inhibitor and candidate compounds to occur. The time resolved FRET (TR-FRET) signal was then read at 520/620 […] (excitation/emission) using a Spectramax M5e plate reader (Molecular Devices) to measure probe displacement. Compounds with Cbl-b binding activity had decreased FRET signal owing to disruption of the terbium-BODIPY-FL FRET complex. Standard methods in PRISM were used to calculate the compound IC50 values from the experimental data.

Cbl-b (36-427 aa truncated form, N-terminus Avi-tag), sequence (Q13191 36-427): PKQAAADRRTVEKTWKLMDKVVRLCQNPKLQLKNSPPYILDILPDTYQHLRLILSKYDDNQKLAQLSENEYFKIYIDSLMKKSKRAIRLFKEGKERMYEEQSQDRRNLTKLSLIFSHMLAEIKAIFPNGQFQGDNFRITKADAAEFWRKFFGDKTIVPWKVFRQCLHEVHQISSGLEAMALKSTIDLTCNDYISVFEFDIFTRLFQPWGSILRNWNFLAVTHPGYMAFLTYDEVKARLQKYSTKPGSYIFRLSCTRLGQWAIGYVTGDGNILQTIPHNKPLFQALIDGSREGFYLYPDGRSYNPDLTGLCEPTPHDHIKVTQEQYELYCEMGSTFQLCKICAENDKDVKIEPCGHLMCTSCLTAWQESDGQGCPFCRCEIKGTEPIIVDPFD

As to `C[C@H]1CCCN(Cc2cc3c(c(C(F)(F)F)c2)CN(c2cc(C4(Cc5nncn5C)COC4)cc(OCCO)n2)C3=O)C1` [Compound 100, 2-[6-(2-hydroxyethoxy)-4-{3-[(4-methyl-1,2,4-triazol-3-yl)methyl]oxetan-3-yl}pyridin-2-yl]-6-{[(3S)-3-methylpiperidin-1-yl]methyl}-4-(trifluoromethyl)-3H-isoindol-1-one], in the assay on Human primary T cells [1], the “IL-2 1 nM” value was “C (values between 0.10 and 0.30: range “C”)”; the “IL-2 10 nM” value was “B (values between 0.31 and 0.79: range “B”)”; the “IL-2 100 nM” value was “B (values between 0.31 and 0.79: range “B”)”. Also, in the assay with Human primary T cells [2], the “CD69 10 nM” value is “C (values between 0.30 and 0.60: range “C”)”; the “CD69 100 nM” value is “A (values between 0.81 and 1.10: range “A”)”. Moreover, in the assay with Human primary T cells [3], the “IFN-y 1 nM” value was “C (values between 0.10 and 0.30: range “C”)”; the “IFN-y 10 nM” value is “B (values between 0.31 and 1.00: range “B;”)”; the “IFN-y 100 nM” value was “B (values between 0.31 and 1.00: range “B;”)”.
In turn, `CNCC(=O)Nc1cc(C2(Cc3nncn3C)COC2)cc(N2Cc3c(cc(CN4CCC[C@H](C)C4)cc3C(F)(F)F)C2=O)n1` [Compound 101, N-(4-{3-[(4-methyl-1,2,4-triazol-3-yl)methyl]oxetan-3-yl}-6-(6-{[(3S)-3-methylpiperidin-1-yl]methyl}-1-oxo-4-(trifluoromethyl)-3H-isoindol-2-yl)pyridin-2-yl)-2-(methylamino)acetamide; formic acid] registered an IC50 in assay [4] of 5.01 to 20 nM.
Still for that read-out and setting: then `CNCc1cc(C2(Cc3nncn3C)COC2)cc(N2Cc3c(cc(CN4CCC[C@H](C)C4)cc3C(F)(F)F)C2=O)n1` [Compound 104, 2-(4-{3-[(4-methyl-1,2,4-triazol-3-yl)methyl]oxetan-3-yl}-6-[(methylamino)methyl]pyridin-2-yl)-6-{[(3S)-3-methylpiperidin-1-yl]methyl}-4-(trifluoromethyl)-3H-isoindol-1-one; trifluoroacetic acid], with 100 to 1000 nM; and `CSC(C)(C)CNc1cc(C2(Cc3nncn3C)COC2)cc(N2Cc3c(cc(CN4CCC[C@H](C)C4)cc3C(F)(F)F)C2=O)n1` [Compound 105, 2-(4-{3-[(4-methyl-1,2,4-triazol-3-yl)methyl]oxetan-3-yl}-6-{[2-methyl-2-(methylsulfanyl)propyl]amino}pyridin-2-yl)-6-{[(3S)-3-methylpiperidin-1-yl]methyl}-4-(trifluoromethyl)-3H-isoindol-1-one; formic acid], with 100 to 1000 nM.
With `C[C@H]1CCCN(Cc2cc3c(c(C(F)(F)F)c2)CN(c2cc(C4(Cc5nncn5C)COC4)cc(NCCS)n2)C3=O)C1` [Compound 108, 2-(4-{3-[(4-methyl-1,2,4-triazol-3-yl)methyl]oxetan-3-yl}-6-[(2-sulfanylethyl)amino]pyridin-2-yl)-6-{[(3S)-3-methylpiperidin-1-yl]methyl}-4-(trifluoromethyl)-3H-isoindol-1-one], the IC50 in assay [4] fell in the range of 1 to 5 nM.
The same measure, in the same setting: with `C#CCNc1cc(C2(Cc3nncn3C)COC2)cc(N2Cc3c(cc(CN4CCC[C@H](C)C4)cc3C(F)(F)F)C2=O)n1` [Compound 109, (S)-2-(4-(3-((4-methyl-4H-1,2,4-triazol-3-yl)methyl)oxetan-3-yl)-6-(prop-2-yn-1-ylamino)pyridin-2-yl)-6-((3-methylpiperidin-1-yl)methyl)-4-(trifluoromethyl)isoindolin-1-one] the figure was 100 to 1000 nM.
For `CCNc1cc([C@]2(c3nncn3C)C[C@@H](C)C2)nc(N2Cc3c(cc(CN4CCC[C@H](C)C4)cc3C(F)(F)F)C2=O)n1` [Compound 114A, 2-[4-(ethylamino)-6-[(1s,3R)-3-methyl-1-(4-methyl-1,2,4-triazol-3-yl)cyclobutyl]pyrimidin-2-yl]-6-{[(3S)-3-methylpiperidin-1-yl]methyl}-4-(trifluoromethyl)-3H-isoindol-1-one], the IC50 in assay [4] was 100 to 1000 nM.
As for `CCOc1cc(C2(Cc3nncn3C)COC2)cc(N2Cc3c(cc(CN4CCC[C@H](C)C4)cc3C(F)(F)F)C2=O)n1` [Compound 146], in the assay on Human primary T cells [1], the “IL-2 1 nM” value was “B (values between 0.31 and 0.79: range “B”)”; the “IL-2 10 nM” value is “B (values between 0.31 and 0.79: range “B”)”; the “IL-2 100 nM” value was “A (between 0.80 and 1.40: range “A”)”. For the same compound, in the assay with Human primary T cells [2], the “CD69 10 nM” value was “A (values between 0.81 and 1.10: range “A”)”; the “CD69 100 nM” value was “A (values between 0.81 and 1.10: range “A”)”. In addition, in the assay on Human primary T cells [3], the “IFN-y 1 nM” value was “B (values between 0.31 and 1.00: range “B;”)”; the “IFN-y 10 nM” value is “A (fold over background between 1.10 and 2.00: range “A”)”; the “IFN-y 100 nM” value was “A (fold over background between 1.10 and 2.00: range “A”)”.
In the case of `CCNc1cc(C2(Cc3nncn3C)COC2)cc(N2Cc3c(cc(CN4CCC[C@H](C)C4)cc3C(F)(F)F)C2=O)n1` [Compound 147], in the assay with Human primary T cells [1], the “IL-2 1 nM” value was “B (values between 0.31 and 0.79: range “B”)”; the “IL-2 10 nM” value is “B (values between 0.31 and 0.79: range “B”)”; the “IL-2 100 nM” value was “A (between 0.80 and 1.40: range “A”)”. Besides, in the assay on Human primary T cells [2], the “CD69 10 nM” value is “A (values between 0.81 and 1.10: range “A”)”; the “CD69 100 nM” value is “A (values between 0.81 and 1.10: range “A”)”. In the assay on Human primary T cells [3], the “IFN-y 1 nM” value is “B (values between 0.31 and 1.00: range “B;”)”; the “IFN-y 10 nM” value was “A (fold over background between 1.10 and 2.00: range “A”)”; the “IFN-y 100 nM” value is “A (fold over background between 1.10 and 2.00: range “A”)”.
With `C[C@H]1CCCN(Cc2cc3c(c(C(F)(F)F)c2)CN(c2cccc([C@]4(c5nncn5C)C[C@@H](C)C4)c2)C3=O)C1` [Compound 148], in the assay on Human primary T cells [1], the “IL-2 1 nM” value is “B (values between 0.31 and 0.79: range “B”)”; the “IL-2 10 nM” value was “A (between 0.80 and 1.40: range “A”)”; the “IL-2 100 nM” value is “A (between 0.80 and 1.40: range “A”)”. In the assay on Human primary T cells [2], the “CD69 10 nM” value is “A (values between 0.81 and 1.10: range “A”)”; the “CD69 100 nM” value is “A (values between 0.81 and 1.10: range “A”)”. Further, in the assay with Human primary T cells [3], the “IFN-y 1 nM” value was “B (values between 0.31 and 1.00: range “B;”)”; the “IFN-y 10 nM” value is “A (fold over background between 1.10 and 2.00: range “A”)”; the “IFN-y 100 nM” value is “A (fold over background between 1.10 and 2.00: range “A”)”.
With “(3S)-1-[6-(2,5-dioxopyrrol-1-yl)hexyl]-1-({2-[6-(ethylsulfanyl)-4-{3-[(4-methyl-1,2,4-triazol-3-yl)methyl]oxetan-3-yl}pyridin-2-yl]-3-oxo-7-(trifluoromethyl)-1H-isoindol-5-yl}methyl)-3-methylpiperidin-1-ium [Compound 209]”, in the assay on Human primary T cells [1], the “IL-2 1 nM” value is “C (values between 0.10 and 0.30: range “C”)”; the “IL-2 10 nM” value was “C (values between 0.10 and 0.30: range “C”)”; the “IL-2 100 nM” value is “B (values between 0.31 and 0.79: range “B”)”. Also, in the assay with Human primary T cells [2], the “CD69 10 nM” value was “C (values between 0.30 and 0.60: range “C”)”; the “CD69 100 nM” value is “B (values between 0.61 and 0.80: range “B;”)”. In the assay on Human primary T cells [3], the “IFN-y 1 nM” value was “C (values between 0.10 and 0.30: range “C”)”; the “IFN-y 10 nM” value was “C (values between 0.10 and 0.30: range “C”)”; the “IFN-y 100 nM” value is “B (values between 0.31 and 1.00: range “B;”)”.

One may read the IC50 as the concentration that inhibits the measured activity by half. Low readings indicate greater potency, high ones weaker potency.
